The values that follow come from US20130189354A1, “Novel Pharmaceutical Compositions for Treating Chronic Pain and Pain Associated with Neuropathy” (priority 2010, published 2013).

Where a name gives a salt, the structure may show the parent alone. Read-outs that look alike come from different tables or passages of the source.

Series [1] concerns diabetic neuropathy and fibromyalgia. Put plainly: Pain relief in patients with diabetic neuropathy and fibromyalgia. It counts as in vivo, human. The settings on record: 400 mg of tramadol per day. From the text: In certain preferred embodiments, the invention is directed in part to synergistic combinations of dextromethorphan or other NMDA receptor antagonist in an amount sufficient to render a therapeutic effect together with an anticonvulsant and/or a tricyclic anti-depressant and tramadol or its analog, such that an analgesic effect is attained which is at least about 5 (and preferably at least about 10) times greater than that obtained with the dose of tramadol or its analog alone. This is exemplified by the apparent fact that patients with diabetic neuropathy and fibromyalgia, who could not get even 30-40% reduction in pain even with the administration of 400 mg of tramadol per day, can have shown 90-100% pain relief with the inventive composition containing 35 mg of tramadol, 45 mg of dextromethorphan and 90 mg of gabapentin over a period of 12-16 hours.
(§1) The synergistic effect of the combination can further be appreciated using Table 1.

Another series has as its target μ-opiate receptor (Homo sapiens, UniProt P35372). As to conditions: cited from earlier work.
For series [2] the following is noted: cited from earlier work.
In series [3] the test system is pain. The settings on record: single oral dose of tramadol 100 mg; cited from earlier work.
The test system of series [4] is α2δ subunit of voltage-gated calcium channels. The settings on record: cited from earlier work.
In series [5] the test system is neuropathy-induced allodynia. As to conditions: in vivo; cited from earlier work.
The test system of series [6] is Diabetic Neuropathy. As to conditions: literature values; Tramadol Hydrochloride 400 mg/day (Sindrup 1999), Gabapentin 3600 mg/day (Marchettini 2004); cited from earlier work.
Series [7] relates to Fibromyalgia. The settings on record: literature values; Tramadol Hydrochloride 400 mg/day (Biasi 1998; Russell 2000), Gabapentin 3600 mg/day (Lesley 2007); cited from earlier work.
For series [8] the following is noted: patients with epilepsy; cited from earlier work.
Series [9] has as its system Diabetic Neuropathy. Put plainly: Pain relief in diabetic neuropathy patients (Table 1). As to conditions: individual components at the doses present in TLI-0326 (40.4, 100, 200 mg/day); would have very little effect. Type of series: in vivo, human.
Text: as §1

Series [10] concerns Fibromyalgia. As to the kind of experiment: Pain relief in fibromyalgia patients (Table 1). Type of series: in vivo, human. The settings on record: individual components at the doses present in TLI-0326 (40.4, 100, 200 mg/day); would have very little effect.
Text: as §1

Series [11] deals with postherpetic neuralgia. The settings on record: cited from earlier work.
The subject of series [12] is pain. As to conditions: relative to tramadol; cited from earlier work.
For another series, the system named is central poststroke pain. The settings on record: 10 of 15 patients; cited from earlier work.
Series [13] concerns postherpetic neuralgia. As to conditions: oral; cited from earlier work.
For series [14], the system named is painful diabetic neuropathy. As to conditions: oral; cited from earlier work.
The conditions of series [15]: rats, i.v. administration; cited from earlier work.
A further series concerns uptake of dopamine. The settings on record: cited from earlier work.
For series [16], the system named is a or β adrenergic, muscarinic, histaminergic, and dopaminergic receptors. The settings on record: cited from earlier work.
For series [17] the following is noted: cited from earlier work. The source holds these as a separate data set.
For series [18] the following is noted: diabetic peripheral neuropathy trials; cited from earlier work.
For series [19] the following is noted: fibromyalgia trials, cited from earlier work.
Another series has as its system post-operative pain. As to conditions: third molar surgery; cited from earlier work.

Chain of μ-opiate receptor (P35372 whole entry, species assumed): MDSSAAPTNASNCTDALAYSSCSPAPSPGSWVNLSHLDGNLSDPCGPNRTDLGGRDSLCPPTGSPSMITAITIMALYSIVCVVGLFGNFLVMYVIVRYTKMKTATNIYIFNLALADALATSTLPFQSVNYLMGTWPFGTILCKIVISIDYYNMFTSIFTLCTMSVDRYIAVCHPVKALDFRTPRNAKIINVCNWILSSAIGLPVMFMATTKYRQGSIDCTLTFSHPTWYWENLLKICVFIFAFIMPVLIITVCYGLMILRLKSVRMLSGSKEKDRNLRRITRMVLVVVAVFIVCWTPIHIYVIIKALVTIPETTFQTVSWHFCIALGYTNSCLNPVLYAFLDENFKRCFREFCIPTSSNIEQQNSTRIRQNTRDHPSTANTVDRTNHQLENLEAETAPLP

The bioavailability is the share of a dose that reaches the circulation, judged against a reference dose that is usually intravenous. For orientation: half-life means the time needed for the level to fall by half in the phase considered. With `COc1cccc(C2(O)CCCCC2CN(C)C)c1` (racemic) [tramadol, (+/−)-trans (RR,SS)-2-[(di-methylamino)methyl]-1-(3-methoxyphenyl)cyclohexanol], the reduction in pain in series [1] is 30-40%. For the same molecule, the “affinity for opiate receptors, fold less than codeine” value on μ-opiate receptor (relative to codeine) is recorded as 10 fold. Further, on μ-opiate receptor (relative to d-propoxyphene), the “affinity for opiate receptors, fold less than d-propoxyphene” value was 100 fold. Further, the “affinity for opiate receptors relative to dextromethorphan” value on μ-opiate receptor (relative to dextromethorphan) was “equivalent”. Besides, the “affinity for opiate receptors, fold less than morphine” value at μ-opiate receptor (relative to morphine) was 6,000 fold. Also, the “accumulation during multiple dose treatment” value in [2] (multiple dose treatment with tramadol) was “approximately 2 fold”. In [2] (oral administration), the bioavailability is reported as 68% and the “time to peak serum concentrations” value was ≤ 2 h. Moreover, the half-life in series [2] (single oral dose of 100 mg tramadol) was 5.1 h. For the same molecule, in the series with pain [3], the “duration of the analgesic effect” value was “about 6 hours”.

For orientation: IC50 means the concentration that gives 50% inhibition. Take `C[C@@H]1CCC[C@](CN)(CC(=O)O)C1` [(1R,3R)3-MeGBP]: the IC50 in series [4] is > 10000 nM. In addition, in series [5], the “reversal of neuropathy-induced allodynia” value was “ineffective”.

Regarding `C[C@@H]1CCC[C@@](CN)(CC(=O)O)C1` [(1S,3R)3-MeGBP], the IC50 in series [4] is 42 nM. For the same molecule, the “reversal of neuropathy-induced allodynia” value in series [5] was “effectively reversed”.

In the case of `NCC1(CC(=O)O)CCCCC1` [Gabapentin], in the series with Diabetic Neuropathy [6], the “Pain Relief (percent of reduction in pain) Diabetic Neuropathy” value is <50%. Further, the “Pain Relief (percent of reduction in pain) Fibromyalgia” value with Fibromyalgia [7] is <50%. For the same molecule, the “steady-state predose (Cmin) concentration in cerebrospinal fluid as share of plasma concentration” value in series [8] is on record as “approximately 20%”.

`O=S(=O)([O-])[O-].[Mg+2]` [Magnesium (present as magnesium sulfate)]: the “Pain Relief (percent of reduction in pain) Diabetic Neuropathy” value in the series on Diabetic Neuropathy [9] is <10%. Further, the “Pain Relief (percent of reduction in pain) Fibromyalgia” value in the series on Fibromyalgia [10] is on record as <10%. The “pain scores compared with placebo” value in the series on postherpetic neuralgia [11] (30 mg kg-1 i.v., at 20 and 30 min (P=0.016), not at 10 min) was “significantly lower”. Further, the “safety, tolerability and efficacy” value in the series on postherpetic neuralgia [11] (i.v., postherpetic neuralgia) was “safe, well-tolerated and effective”.

As to `CN(C)C[C@H]1CCCC[C@]1(O)c1cccc(O)c1` [O-desmethyltramadol (M1), O-desmethyltramadol], the “analgesic potency relative to parent drug” value with pain [12] is listed as “at least twice the analgesic potency of the parent drug”.

Consider `COc1cccc(C2(O)CCCCC2CN(C)C)c1` (stereo not drawn) [Tramadol Hydrochloride], for which the figures for the “Pain Relief (percent of reduction in pain) Diabetic Neuropathy” value in the series with Diabetic Neuropathy [9] and in the series with Diabetic Neuropathy [6] were <10% and <35%, respectively. The entries for the “Pain Relief (percent of reduction in pain) Fibromyalgia” value with Fibromyalgia [10] and in the series on Fibromyalgia [7] were <10% and <30%, respectively.

In the case of `CN(C)CCC=C1c2ccccc2CCc2ccccc21` [amitriptyline], in the series with central poststroke pain, the “patients with superior relief compared with placebo” value is given as 67%. Besides, the “share of patients with good or moderate response” value in the series on postherpetic neuralgia [13] is on record as “about two-thirds”; in series [14], “three-quarters”.

As for `COc1cc(CNC(=O)CCCCC=CC(C)C)ccc1O` [capsaicin, 8-methyl-N-vanillyl-6-nonenamide], the “time to distribution to brain, spinal cord, liver and blood” value in [15] was ≤ 20 min.

On to `CCN(CC)C(=O)C1(c2ccccc2)CC1CN.Cl` (stereo not drawn) [milnacipran, 1-phenyl-1-diethyl-aminocarbonyl-2-aminomethyl-cyclopropane (Z) hydrochloride], for which the “effect on uptake of dopamine” value in the series on uptake of dopamine is listed as “does not affect”. The affinity for receptors result in series [16] was “no affinity”. In series [17] (100 mg/day twice daily), the “adverse event: constipation” value is reported as 10% and the “adverse event: headache” value is given as 9%. Besides, in [17] (200 mg/day twice daily), the “adverse event: abdominal pain” value is 7%; the “adverse event: headache” value is 8%; the “adverse event: nausea and vomiting” value is 7%.

Regarding `CC(C)C[C@H](CN)CC(=O)O` [pregabalin], in [18], the “patients discontinued prematurely due to adverse reactions” value was 9%; the “withdrawal due to asthenia, confusion, and peripheral edema (each)” value is given as “approximately 1%”. In addition, the “patients discontinued prematurely due to adverse reactions” value in series [19] (150-600 mg/day) is recorded as 19%. Moreover, the “withdrawal due to fatigue, headache, balance disorder, and weight increased (each)” value in [19] was “approximately 1%”.

For the molecule `N[C@@H](Cc1c[nH]c2ccccc12)C(=O)O` [tryptophan], in the series with post-operative pain, the “effect on post-operative pain or consumption of other analgesics” value is recorded as “no effect”.
